Experimental data from article PMC4109680, “Identification and Preclinical Pharmacology of the γ-Secretase Modulator BMS-869780” (International Journal of Alzheimer's Disease, 2014).

Tests used:
Aβ1-42 (MEF M146V) = test: Aβ1-42 ELISA in MEF dKO cultures cotransfected with APP-CTF and human presenilin-1 M146V allele; format: cell-based
Method: H4-APPsw cell cultures were maintained on Dulbecco's modified Eagle's medium (DMEM) supplemented with L-glutamine (2 mM), fetal bovine serum (10%), and G418 (100 μg/mL). […] Aβ1-42 and Aβ1-40 assays, and Notch inhibition assays, were carried out as described previously. Mouse embryonic fibroblasts deficient in PS1 and PS2 (MEF dKO) were passaged twice per week in DMEM/F-12 medium, consisting of a 1 : 1 mixture of DMEM and F-12 nutrient mixture supplemented with 10% fetal bovine serum, penicillin, and streptomycin. For expression of human presenilin-1 in MEF dKO cells, the full length human presenilin-1 cDNA open reading frame was cloned between the BamHI and XhoI sites of the vector pcDNA5/FRT (Invitrogen), placing presenilin-1 expression under the control of the CMV promoter. […]
IC50 determinations for Aβ1-42 and Aβ1-40 in H4-APPsw cultures in 384-well format were determined using homogeneous time-resolved fluorescence immunoassays as previously described. […] In other experiments using H4-APPsw cultures, Aβ was quantified by ELISA; for Aβ1-42 the combination of monoclonal antibodies was 26D6 and 565-HRP; for Aβ1-40 it was TSD and 26D6-HRP, and for Aβ1-x it was 4G8 and 26D6-HRP. […] For Aβ in transiently transfected PS1/PS2 dKO fibroblasts, Aβ1-42 was quantified using an ELISA kit (WACO), and Aβ1-40 was quantified by ELISA as described above for H4-APPsw cultures. […]

[1] = Plasma protein bound fraction, mouse; format: in vitro ADME

COc1cc(Nc2nc3n(n2)CCCC[C@H]3c2ccc(F)cc2)ccc1-n1cnc(Cl)c1 [BMS-869780]
IC50 (Aβ1-42 (MEF M146V); Homo sapiens, presenilin-1 M146V allele): 22 nM | Aβ1-42 IC50 in M146V allele relative to wild type presenilin (Aβ1-42 (MEF M146V); MEF cultures, higher IC50 (less potent) with M146V): ca. 3 fold | protein bound fraction [1]: 99.6%
